Experimental data from patent US20250311722A1, “IMPROVED BIOCIDE” (Purgos ApS, priority 2022, published 2025).
Several values for one entry are separate records, joined by “and”; a condition that tells them apart may be missing. Equal entries are not always repeated.

Experiments:
Type in all cases: cell-based
bacteria [1] = assay: PVB dispersion treated with NBDA: microbial contamination by cATP (LuminUltra); set-up: bacteria count: unit not given here
bacteria [2] = assay: Tap water and polluted water treated with NDBA: bacteria count and BSI; details: 300 grams water, 32° C.
[3] = tested on: Listeria monocytogenes ISI 22; assay: Minimal inhibitory concentration (MIC)
Protocol: (§1) Minimum inhibitory concentrations (MICs) are defined as the lowest concentration of an antimicrobial that will inhibit the visible growth of a microorganism after a standardized incubation. In the present study, MIC assay was performed by pipetting robot. The principle is that an indicator microorganism at a defined cell density is cultured with a range of concentrations of the test compound, one concentration pr, well in a row on the microtiter plate. For bacteria and yeasts the minimal inhibitory concentration was detected as no increase of optical density (OD), for moulds microtiter plates were read visually. Each indicator organism is tested in duplicate and the MIC is calculated as the average of the two determinations. The tested concentrations of the antimicrobial substances were 2-fold dilutions from 5%. All indicator organisms (see Table 2.) were pre-cultivated in a suitable growth medium and diluted in the same medium to give a final concentration in the assay of ˜1×10^3 cfu/ml. The microtiter plates were incubated under specific incubation conditions (see Table III). [table]

[4] = tested on: Salmonella Infantis ISI 170; assay: Minimal inhibitory concentration (MIC)
Protocol: as §1

[5] = tested on: Escherichia coli, ATCC 10536; assay: EN 1276 quantitative suspension test, bactericidal activity
Protocol: (§2) The test was carried out according to EN 1276, 2019: Chemical disinfectants and antiseptics-Quantitative suspension test for the evaluation of bactericidal activity of chemical disinfectants and antiseptics used in food, industrial, domestic, and institutional areas-Test method and requirements. […] The growth media TSB (Tryptic Soy Broth) was separately inoculated with a culture loop of the microorganisms. The cultures were incubated at 37° C. for 24 hours. Bovine Serum Albumin with a final concentration of 3 g/L Polysorbate 80 with a concentration of 30 g/L The used method was Dilution-neutralization method. 1 mL of interfering substance was pipetted into a tube and 1 mL of the test suspension was added and mixed. […] The solution was incubated at 20° C. for 5 min. and 60 min. respectively. […] After 5 min. of neutralization time 100 μL of the mixture was added to a petri-dish containing TSA media. Another 100 μL was added to a tube containing 900 μL 0.9% NaCl and a serial dilution to 10^-5 was made. The mixtures added to the agar plates were evenly distributed with a Drigalski-spatula. The agar plates were incubated at 37° C. for 24 hours. After incubation, the number of surviving bacteria (CFU) was counted. The test was performed in 3 replicates.

[6] = tested on: Pseudomonas aeruginosa, ATCC 15442; assay: as above
Protocol: as §2

[7] = tested on: Staphylococcus aureus, ATCC 6538; assay: as above; details: all tested contact times (5, 60 min) and concentrations (1.5%, 3%, 6%)
Protocol: as §2

[8] = 0.50% NBDA, 25° C.(RT), after 1 mo
[9] = 0.50% NBDA, 25° C.(RT), after 1 wk
[10] = 0.50% NBDA, 25° C.(RT), after 3 mo
[11] = 0.50% NBDA, 25° C.(RT), after 6 mo
[12] = 0.50% NBDA, 25° C.(RT), after 1 d
[13] = 1.00% NBDA, 25° C.(RT), after 1 mo
[14] = 1.00% NBDA, 25° C.(RT), after 1 wk
[15] = 1.00% NBDA, 25° C.(RT), after 3 mo
[16] = 1.00% NBDA, 25° C.(RT), after 6 mo
[17] = 1.00% NBDA, 25° C.(RT), after 1 d

`CCCCN(CCO)CCO` [NBDA, N-butyldiethanolamine] showed a BSI (bacteria [1]; [8]) of 13, a bacteria count (bacteria [1]; [8]) of 34.8 and a pH (bacteria [1]; [8]) of 9.73. The BSI (bacteria [1]; [9]) was 17, the bacteria count (bacteria [1]; [9]) was 147 and the pH (bacteria [1]; [9]) was 9.65. For the same molecule, the BSI (bacteria [1]; [10]) was 67, the bacteria count (bacteria [1]; [10]) was 22.7 and the pH (bacteria [1]; [10]) was 9.62. It also gave a BSI (bacteria [1]; [11]) of 50, a bacteria count (bacteria [1]; [11]) of 5.77 and a pH (bacteria [1]; [11]) of 9.58. The BSI (bacteria [1]; [12]) was 4, the bacteria count (bacteria [1]; [12]) was 2930 and the pH (bacteria [1]; [12]) was 9.77. For the same molecule, the bacteria count (bacteria [1]; 0.50% NBDA, 32° C., after 1 mo) was 9.47, the bacteria count (bacteria [1]; 0.50% NBDA, 32° C., after 1 wk) was 81 and the bacteria count (bacteria [1]; 0.50% NBDA, 32° C., after 3 mo) was 5.66. The bacteria count (bacteria [1]; 0.50% NBDA, 32° C., after 1 d) was 215, the bacteria count (bacteria [1]; 0.50% NBDA, 60° C., after 1 mo) was 126 and the bacteria count (bacteria [1]; 0.50% NBDA, 60° C., after 1 wk) was 276. It also gave a bacteria count (bacteria [1]; 0.50% NBDA, 60° C., after 3 mo) of 4.2, a bacteria count (bacteria [1]; 0.50% NBDA, 60° C., after 1 d) of 420 and a BSI (bacteria [1]; [13]) of 10. For the same molecule, the bacteria count (bacteria [1]; [13]) was 39.1, the pH (bacteria [1]; [13]) was 9.86 and the BSI (bacteria [1]; [14]) was 24. It also gave a bacteria count (bacteria [1]; [14]) of 183, a pH (bacteria [1]; [14]) of 9.89 and a BSI (bacteria [1]; [15]) of 60. The bacteria count (bacteria [1]; [15]) was 3.77, the pH (bacteria [1]; [15]) was 9.93 and the BSI (bacteria [1]; [16]) was 83. For the same molecule, the bacteria count (bacteria [1]; [16]) was 1.36, the pH (bacteria [1]; [16]) was 9.67 and the BSI (bacteria [1]; [17]) was 6. The bacteria count (bacteria [1]; [17]) was 1530, the pH (bacteria [1]; [17]) was 10.2 and the bacteria count (bacteria [1]; 1.00% NBDA, 32° C., after 1 mo) was 17.9. It also gave a bacteria count (bacteria [1]; 1.00% NBDA, 32° C., after 1 wk) of 13.5, a bacteria count (bacteria [1]; 1.00% NBDA, 32° C., after 3 mo) of 0.94 and a bacteria count (bacteria [1]; 1.00% NBDA, 32° C., after 1 d) of 338. It also gave a bacteria count (bacteria [1]; 1.00% NBDA, 60° C., after 1 mo) of 202, a bacteria count (bacteria [1]; 1.00% NBDA, 60° C., after 1 wk) of 387 and a bacteria count (bacteria [1]; 1.00% NBDA, 60° C., after 3 mo) of 9.3. The bacteria count (bacteria [1]; 1.00% NBDA, 60° C., after 1 d) was 244, the “effectiveness as sole biocide additive” value (bacteria [1]; concentration 0.5%, long term, RT, 32° C. and 60° C.) was “highly effective as the sole biocide additive” and the BSI (bacteria [2]; Polluted water + 0.5%) was 48. It also gave a bacteria count (bacteria [2]; Polluted water + 0.5%) of 56.2, a BSI (bacteria [2]; Tapwater + 0.5%) of 56 and a bacteria count (bacteria [2]; Tapwater + 0.5%) of 7.35. For the same molecule, the “MIC (%)” value [3] was 1.25%, the “MIC data (optical density)” value ([3]; 0.02% NBDA) was 1.182 and 1.216 and the “MIC data (optical density)” value ([3]; 0.04% NBDA) was 1.184 and 1.216. The “MIC data (optical density)” value ([3]; 0.08% NBDA) was 1.165 and 1.119, the “MIC data (optical density)” value ([3]; 0.16% NBDA) was 1.074 and 0.574 and the “MIC data (optical density)” value ([3]; 0.31% NBDA) was 1.027 and 0.645. For the same molecule, the “MIC data (optical density)” value ([3]; 0.63% NBDA) was 0.938 and 0.759, the “MIC data (optical density)” value ([3]; 1.25% NBDA) was 0.047 and 0.048 and the “MIC data (optical density)” value ([3]; 2.50% NBDA) was 0.046 and 0.056. The “MIC data (optical density)” value ([3]; 5.00% NBDA) was 0.045 and 0.056, the “MIC (%)” value [4] was 1.25% and the “MIC data (optical density)” value ([4]; 0.02% NBDA) was 1.662 and 1.413. The “MIC data (optical density)” value ([4]; 0.04% NBDA) was 1.501 and 1.629, the “MIC data (optical density)” value ([4]; 0.08% NBDA) was 1.640 and 1.623 and the “MIC data (optical density)” value ([4]; 0.16% NBDA) was 1.566 and 1.546. For the same molecule, the “MIC data (optical density)” value ([4]; 0.31% NBDA) was 1.389 and 1.282, the “MIC data (optical density)” value ([4]; 0.63% NBDA) was 0.905 and 0.965 and the “MIC data (optical density)” value ([4]; 1.25% NBDA) was 0.046 and 0.040. The “MIC data (optical density)” value ([4]; 2.50% NBDA) was 0.047 and 0.044, the “MIC data (optical density)” value ([4]; 5.00% NBDA) was 0.044 and 0.043 and the CFU/plate ([5]; 1.5%, contact time 5 min) was over 165 CFU/plate. For the same molecule, the log10 reduction ([5]; 1.5%, contact time 5 min) was under 5 log10, the CFU/plate ([5]; 1.5%, contact time 60 min) was over 165 CFU/plate and the log10 reduction ([5]; 1.5%, contact time 60 min) was under 5 log10. The CFU/plate ([5]; 3.0%, contact time 5 min) was over 165 CFU/plate, the log10 reduction ([5]; 3.0%, contact time 5 min) was under 5 log10 and the CFU/plate ([5]; 3.0%, contact time 60 min) was over 165 CFU/plate. The log10 reduction ([5]; 3.0%, contact time 60 min) was under 5 log10, the CFU/plate ([5]; 6.0%, contact time 5 min) was over 165 CFU/plate and the log10 reduction ([5]; 6.0%, contact time 5 min) was under 5 log10. The CFU/plate ([5]; 6.0%, contact time 60 min) was 25 CFU/plate and 29 CFU/plate and 30 CFU/plate, the CFU/plate ([6]; 1.5%, contact time 5 min) was over 165 CFU/plate and the log10 reduction ([6]; 1.5%, contact time 5 min) was under 5 log10. For the same molecule, the CFU/plate ([6]; 1.5%, contact time 60 min) was over 165 CFU/plate, the log10 reduction ([6]; 1.5%, contact time 60 min) was under 5 log10 and the CFU/plate ([6]; 3.0%, contact time 5 min) was over 165 CFU/plate. It also gave a log10 reduction ([6]; 3.0%, contact time 5 min) of under 5 log10, a CFU/plate ([6]; 3.0%, contact time 60 min) of over 165 CFU/plate and a log10 reduction ([6]; 3.0%, contact time 60 min) of under 5 log10. For the same molecule, the CFU/plate ([6]; 6.0%, contact time 5 min) was over 165 CFU/plate, the log10 reduction ([6]; 6.0%, contact time 5 min) was under 5 log10 and the CFU/plate ([6]; 6.0%, contact time 60 min) was 25 CFU/plate and 22 CFU/plate and 35 CFU/plate. For the same molecule, the “log changes of CFU” value [7] was “lower than 5 log units”.
